Data as given in US20240081328A1, “Use of 4-Nitro-3-(Trifluoromethyl)Phenol in Killing or Controlling Pomacea Canaliculata, Method for Killing or Controlling Pomacea Canaliculata, and Molluscicide” (priority 2021, published 2024).
Where two headings read alike, the source gives them in different places.

Test system: Pomacea canaliculata
Experiment: Immersion test of dilutions in beakers, mortality rate of Pomacea canaliculata
Assay type: in vivo
Conditions: for mortality at 0.0039 µg/mL / mortality at 0.0078 µg/mL / mortality at 0.0156 µg/mL / mortality at 0.0312 µg/mL / mortality at 0.0625 µg/mL / mortality at 0.125 µg/mL / mortality at 0.25 µg/mL / mortality at 0.5 µg/mL: Pomacea canaliculata, read-out: Mortality rate (%) of Pomacea canaliculata at different action time (h); for mortality at 0.0039 µg/mL: 0.0039 mg/L; for mortality at 0.0078 µg/mL: 0.0078 mg/L; for mortality at 0.0156 µg/mL: 0.0156 mg/L; for mortality at 0.0312 µg/mL: 0.0312 mg/L; for mortality at 0.125 µg/mL: 0.125 mg/L; for mortality at 0.25 µg/mL: 0.25 mg/L; for mortality at 0.5 µg/mL: 0.5 mg/L
Description: 0.5 mg of 4-nitro-3-(trifluoromethyl)phenol and 0.5 mg of niclosamide were completely dissolved in 1 mL of a dimethyl sulfoxide (DMSO) solution separately, and diluted to 1,000 mL with deaminized water to obtain a 4-nitro-3-(trifluoromethyl)phenol solution with a concentration of 0.5 mg/L and a niclosamide solution with a concentration of 0.5 mg/L.
The two solutions were separately diluted into 7 concentrations of dilutions using a doubling dilution method, including 0.25 mg/L, 0.125 mg/L, 0.0625 mg/L, 0.0312 mg/L, 0.0156 mg/L, and 0.0078 mg/L, and 0.0039 mg/L.
400 mL of the dilutions with different concentrations were separately poured into a 500 mL beaker, 10 Pomacea canaliculata samples were put into the dilution of each concentration, and each bottle mouth was sealed with wire mesh to completely immerse the Pomacea canaliculata in the dilution; clear water was used as a control group.
The experimental data were used to calculate the mortality rate of each treatment according to the following formula. Each calculation result was rounded to two decimal places. A formula for calculating the mortality rate was: […]
In the formula: P represented the mortality rate, in percentage (%); Σ^Ki represented • the number of dead Pomacea canaliculata, in snails; Σ^Ni represented the total number of treated Pomacea canaliculata, in snails.

In the case of O=[N+]([O-])c1ccc(O)cc1C(F)(F)F [4-nitro-3-(trifluoromethyl)phenol], the “killing of Pomacea canaliculata (in words)” value (0.0625 mg/L, action time of 24 h) is reported as “could kill all Pomacea canaliculata”, the mortality at 0.0039 µg/mL (action time 0 h) is reported as 0% and the mortality at 0.0039 µg/mL (action time 12 h) is reported as 0%. It also gave a mortality at 0.0039 µg/mL (action time 24 h) of 20%, a mortality at 0.0039 µg/mL (action time 36 h) of 50% and a mortality at 0.0039 µg/mL (action time 48 h) of 50%. It also gave a mortality at 0.0039 µg/mL (action time 60 h) of 50%, a mortality at 0.0039 µg/mL (action time 72 h) of 70% and a mortality at 0.0078 µg/mL (action time 0 h) of 0%. The mortality at 0.0078 µg/mL (action time 12 h) was 0%, the mortality at 0.0078 µg/mL (action time 24 h) was 40% and the mortality at 0.0078 µg/mL (action time 36 h) was 100%. It also gave a mortality at 0.0078 µg/mL (action time 48 h) of 100%, a mortality at 0.0078 µg/mL (action time 60 h) of 100% and a mortality at 0.0078 µg/mL (action time 72 h) of 100%. For the same molecule, the mortality at 0.0156 µg/mL (action time 0 h) was 0%, the mortality at 0.0156 µg/mL (action time 12 h) was 10% and the mortality at 0.0156 µg/mL (action time 24 h) was 100%. The mortality at 0.0156 µg/mL (action time 36 h) was 100%, the mortality at 0.0156 µg/mL (action time 48 h) was 100% and the mortality at 0.0156 µg/mL (action time 60 h) was 100%. The mortality at 0.0156 µg/mL (action time 72 h) was 100%, the mortality at 0.0312 µg/mL (action time 0 h) was 0% and the mortality at 0.0312 µg/mL (action time 12 h) was 30%. The mortality at 0.0312 µg/mL (action time 24 h) was 100%, the mortality at 0.0312 µg/mL (action time 36 h) was 100% and the mortality at 0.0312 µg/mL (action time 48 h) was 100%. It also gave a mortality at 0.0312 µg/mL (action time 60 h) of 100%, a mortality at 0.0312 µg/mL (action time 72 h) of 100% and a mortality at 0.0625 µg/mL (0.0625 mg/L, action time 0 h) of 0%. For the same molecule, the mortality at 0.0625 µg/mL (0.0625 mg/L, action time 12 h) was 70%, the mortality at 0.0625 µg/mL (0.0625 mg/L, action time 24 h) was 100% and the mortality at 0.0625 µg/mL (0.0625 mg/L, action time 36 h) was 100%. It also gave a mortality at 0.0625 µg/mL (0.0625 mg/L, action time 48 h) of 100%, a mortality at 0.0625 µg/mL (0.0625 mg/L, action time 60 h) of 100% and a mortality at 0.0625 µg/mL (0.0625 mg/L, action time 72 h) of 100%. For the same molecule, the mortality at 0.125 µg/mL (action time 0 h) was 0%, the mortality at 0.125 µg/mL (action time 12 h) was 100% and the mortality at 0.125 µg/mL (action time 24 h) was 100%. For the same molecule, the mortality at 0.125 µg/mL (action time 36 h) was 100%, the mortality at 0.125 µg/mL (action time 48 h) was 100% and the mortality at 0.125 µg/mL (action time 60 h) was 100%. For the same molecule, the mortality at 0.125 µg/mL (action time 72 h) was 100%, the mortality at 0.25 µg/mL (action time 0 h) was 0% and the mortality at 0.25 µg/mL (action time 12 h) was 100%. For the same molecule, the mortality at 0.25 µg/mL (action time 24 h) was 100%, the mortality at 0.25 µg/mL (action time 36 h) was 100% and the mortality at 0.25 µg/mL (action time 48 h) was 100%. For the same molecule, the mortality at 0.25 µg/mL (action time 60 h) was 100%, the mortality at 0.25 µg/mL (action time 72 h) was 100% and the mortality at 0.5 µg/mL (action time 0 h) was 0%. For the same molecule, the mortality at 0.5 µg/mL (action time 12 h) was 100%, the mortality at 0.5 µg/mL (action time 24 h) was 100% and the mortality at 0.5 µg/mL (action time 36 h) was 100%. For the same molecule, the mortality at 0.5 µg/mL (action time 48 h) was 100%, the mortality at 0.5 µg/mL (action time 60 h) was 100% and the mortality at 0.5 µg/mL (action time 72 h) was 100%. The “Pomacea canaliculata killing activity / control effect compared with niclosamide” value (overall conclusion from Tables 2 and 3) was “comparable to that of the niclosamide” and the “killing effect on the Pomacea canaliculata (in words)” value (overall conclusion from the examples) was “obvious killing effect”.
